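48-hour exposure; five concentrations; linearly interpolated endpoints. GI50: concentration for 50% inhibition of growth.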 Activity calls are given as the source filed them. No stated cut-off is given here; in the data, active = GI50 up to about 1.1 µM and inactive = higher.
What was measured:
Assay in all cases: NCI-60 cell line screen, 48 h
SK-OV-3 = tested on: SK-OV-3
786-0 = tested on: 786-0
RXF 393 = tested on: RXF 393
COLO 205 = tested on: COLO 205
HOP-62 = tested on: HOP-62
HCT-116 = tested on: HCT-116
RPMI-8226 = tested on: RPMI-8226
NCI-H522 = tested on: NCI-H522
EKVX = tested on: EKVX
K562 = tested on: K562
LOX IMVI = tested on: LOX IMVI
SF-268 = tested on: SF-268
UO-31 = tested on: UO-31
UACC-62 = tested on: UACC-62
OVCAR-4 = tested on: OVCAR-4
SNB-19 = tested on: SNB-19

Measured: GI50

Cc1ccc2c(c1)-c1c3c(nn1-c1ccccc1)-c1ccccc1SC3O2 (configuration not stated)
inactive: SK-OV-3 > 100 µM | 786-0 > 100 µM | RXF 393 > 100 µM | COLO 205 > 100 µM | HOP-62 > 100 µM | HCT-116 > 100 µM | RPMI-8226 63.8 µM | NCI-H522 > 100 µM | EKVX > 100 µM | K562 > 100 µM | LOX IMVI > 100 µM | SF-268 > 100 µM | UO-31 > 100 µM

COc1ccc(S(=O)(=O)N[C@H](C(=O)O)c2ccccc2)cc1
inactive: SK-OV-3 > 100 µM | 786-0 > 100 µM | RXF 393 > 100 µM | COLO 205 > 100 µM | HOP-62 > 100 µM | UACC-62 > 100 µM | HCT-116 > 100 µM | RPMI-8226 > 100 µM | NCI-H522 > 10 µM | EKVX > 100 µM | K562 > 100 µM | LOX IMVI > 100 µM | SF-268 > 100 µM | OVCAR-4 > 100 µM | UO-31 > 100 µM | SNB-19 > 100 µM

C/C(=N\NS(=O)(=O)c1ccc(C)cc1)c1c(O)cc(C)oc1=O
inactive: SK-OV-3 > 100 µM | 786-0 > 100 µM | HOP-62 > 100 µM | UACC-62 > 100 µM | HCT-116 > 100 µM | EKVX > 100 µM | K562 > 100 µM | LOX IMVI > 100 µM | SF-268 > 100 µM | OVCAR-4 29.1 µM | UO-31 > 100 µM | SNB-19 > 100 µM

N#CCN1C(=O)c2cccc3cc([N+](=O)[O-])cc(c23)C1=O
inactive: SK-OV-3 > 100 µM | 786-0 60.3 µM | RXF 393 28.4 µM | COLO 205 35.3 µM | HOP-62 41.1 µM | UACC-62 22.6 µM | HCT-116 32.2 µM | RPMI-8226 22.7 µM | EKVX 74.8 µM | K562 27.5 µM | LOX IMVI 21.6 µM | SF-268 52 µM | OVCAR-4 45.4 µM | UO-31 23.4 µM | SNB-19 84.9 µM

Cc1cc(C)c(-c2noc(-c3ccc(Cl)cc3)c2C2=NCCN2)c(C)c1
inactive: SK-OV-3 13.7 µM | 786-0 15.3 µM | RXF 393 14.2 µM | COLO 205 16.4 µM | HOP-62 22.1 µM | UACC-62 16.8 µM | HCT-116 12.1 µM | RPMI-8226 17.9 µM | NCI-H522 > 10 µM | EKVX 22.9 µM | K562 14.8 µM | LOX IMVI 20.3 µM | SF-268 17.3 µM | OVCAR-4 78.9 µM | UO-31 6.38 µM | SNB-19 28.1 µM

Cc1cc(C)nc(NS(=O)(=O)c2ccc(Nc3c4ccccc4nc4c(C(=O)N5CCN(CCO)CC5)ccc(Cl)c34)cc2)n1
inactive: SK-OV-3 > 100 µM | 786-0 68.1 µM | RXF 393 > 100 µM | COLO 205 63 µM | HOP-62 > 100 µM | UACC-62 83 µM | HCT-116 50.9 µM | RPMI-8226 91.4 µM | K562 38.5 µM | SF-268 76.9 µM | OVCAR-4 > 100 µM | UO-31 > 100 µM | SNB-19 > 100 µM

CCOC(=O)C(=O)Nc1ccc(C)cc1C
inactive: SK-OV-3 > 100 µM | 786-0 > 100 µM | RXF 393 > 100 µM | COLO 205 > 100 µM | HOP-62 > 100 µM | UACC-62 > 100 µM | HCT-116 > 100 µM | RPMI-8226 > 100 µM | NCI-H522 > 100 µM | EKVX > 100 µM | K562 > 100 µM | LOX IMVI > 100 µM | SF-268 > 100 µM | OVCAR-4 > 100 µM | UO-31 > 100 µM | SNB-19 > 100 µM

CC(C)c1cc2c(O)c(c1)Cc1cc(C(C)C)cc(c1O)Cc1cc(C(C)C)cc(c1O)Cc1cc(C(C)C)cc(c1O)Cc1cc(C(C)C)cc(c1O)Cc1cc(C(C)C)cc(c1O)C2
inactive: 786-0 > 100 µM | RXF 393 > 100 µM | COLO 205 > 100 µM | HOP-62 > 100 µM | UACC-62 > 100 µM | HCT-116 > 100 µM | RPMI-8226 > 100 µM | NCI-H522 > 100 µM | EKVX > 100 µM | K562 > 100 µM | SF-268 > 100 µM | OVCAR-4 > 100 µM | UO-31 > 100 µM | SNB-19 > 100 µM

N#Cc1cc([N+](=O)[O-])ccc1NC(=O)C(=O)C(C(=O)c1ccc2ccccc2c1)C1OCc2ccccc21 (configuration not stated)
inactive: SK-OV-3 24.8 µM | 786-0 6.28 µM | RXF 393 3.73 µM | COLO 205 9.4 µM | HOP-62 6.65 µM | UACC-62 7.46 µM | HCT-116 5.01 µM | RPMI-8226 5.2 µM | NCI-H522 7.29 µM | EKVX 16.4 µM | K562 6.25 µM | LOX IMVI 7.19 µM | SF-268 4.11 µM | OVCAR-4 > 25.5 µM | UO-31 12.8 µM | SNB-19 6.9 µM

CC1OC(OP(=O)(OCc2ccccc2)OCc2ccccc2)C(OC(=O)c2ccccc2)C(OC(=O)c2ccccc2)C1I (configuration not stated)
inactive: SK-OV-3 > 100 µM | 786-0 50.9 µM | RXF 393 12.7 µM | COLO 205 30.2 µM | HOP-62 > 100 µM | UACC-62 48.9 µM | HCT-116 28.1 µM | RPMI-8226 19.6 µM | NCI-H522 21.4 µM | EKVX 40.9 µM | K562 29.3 µM | LOX IMVI 47.4 µM | SF-268 52.2 µM | OVCAR-4 60.1 µM | UO-31 27.4 µM | SNB-19 43.8 µM

O=C(N/N=C(\C1=Nc2ccc(Cl)cc2NC1O)C(O)/C=C/c1ccccc1)c1ccncc1 (configuration not stated)
inactive: SK-OV-3 > 100 µM | 786-0 > 100 µM | RXF 393 > 100 µM | COLO 205 > 100 µM | HOP-62 > 100 µM | UACC-62 > 100 µM | HCT-116 > 100 µM | RPMI-8226 > 100 µM | NCI-H522 > 100 µM | K562 > 100 µM | LOX IMVI > 100 µM | SF-268 > 100 µM | OVCAR-4 > 100 µM | UO-31 30.8 µM | SNB-19 > 100 µM

Cc1nc(N)c(-c2ccccc2)s1
inactive: SK-OV-3 38.3 µM | 786-0 77.6 µM | RXF 393 > 48.2 µM | COLO 205 > 47 µM | HOP-62 > 100 µM | UACC-62 > 72.1 µM | HCT-116 31.7 µM | RPMI-8226 > 49.1 µM | NCI-H522 42.7 µM | EKVX > 94.6 µM | K562 > 70.5 µM | LOX IMVI 52.4 µM | SF-268 > 100 µM | OVCAR-4 > 100 µM | UO-31 > 100 µM | SNB-19 80.7 µM

CCCN(CCC)C(=O)C(=O)c1c(N)[nH]n(-c2ccccc2)c1=O
inactive: SK-OV-3 > 100 µM | 786-0 > 100 µM | COLO 205 > 100 µM | UACC-62 > 100 µM | HCT-116 > 100 µM | RPMI-8226 > 100 µM | NCI-H522 > 100 µM | EKVX > 100 µM | K562 43.5 µM | LOX IMVI > 100 µM | SF-268 > 100 µM | OVCAR-4 > 100 µM | UO-31 > 100 µM | SNB-19 > 100 µM

COC(=O)C(=O)CC(=O)CCn1[nH]c(=O)c(Cl)c(Cl)c1=O
inactive: 786-0 > 100 µM | RXF 393 > 100 µM | COLO 205 > 100 µM | HOP-62 > 100 µM | UACC-62 > 100 µM | HCT-116 > 100 µM | NCI-H522 > 100 µM | EKVX > 100 µM | K562 > 100 µM | LOX IMVI > 100 µM | SF-268 > 100 µM | OVCAR-4 > 100 µM | UO-31 > 100 µM | SNB-19 > 100 µM

c1ccc2c(c1)SC(=C1Sc3ccccc3S1)S2
inactive: SK-OV-3 > 100 µM | 786-0 > 100 µM | RXF 393 > 100 µM | COLO 205 > 100 µM | HOP-62 > 100 µM | UACC-62 > 100 µM | EKVX > 100 µM | K562 > 100 µM | LOX IMVI 75.7 µM | SF-268 > 100 µM | OVCAR-4 > 100 µM | UO-31 > 100 µM | SNB-19 > 100 µM

N#CC1(Cc2ccc(N)cc2)c2ccccc2C=CN1C(=O)c1ccccc1 (configuration not stated)
inactive: SK-OV-3 66.4 µM | 786-0 50.2 µM | RXF 393 27.4 µM | COLO 205 27.3 µM | HOP-62 > 100 µM | UACC-62 30.8 µM | HCT-116 54 µM | RPMI-8226 35.2 µM | NCI-H522 60.1 µM | EKVX 38.7 µM | K562 26.5 µM | LOX IMVI 51.6 µM | SF-268 40.6 µM | UO-31 19.8 µM | SNB-19 41.8 µM

CN(C)/C=N/c1nc2c(ncn2C2OC(CO)C(O)C2O)c(=O)[nH]1 (configuration not stated)
inactive: SK-OV-3 > 100 µM | 786-0 > 100 µM | RXF 393 > 100 µM | COLO 205 > 100 µM | HOP-62 > 100 µM | UACC-62 > 100 µM | HCT-116 > 100 µM | RPMI-8226 > 100 µM | EKVX > 100 µM | K562 > 100 µM | SF-268 > 100 µM | OVCAR-4 > 100 µM | UO-31 > 100 µM | SNB-19 > 100 µM

CC(C)(C)C1CCC(O)(c2ccccc2)CC1 (configuration not stated)
inactive: SK-OV-3 > 100 µM | 786-0 63.2 µM | RXF 393 50.7 µM | COLO 205 > 100 µM | HOP-62 > 100 µM | UACC-62 > 100 µM | HCT-116 96.2 µM | RPMI-8226 47.8 µM | NCI-H522 40.6 µM | EKVX > 100 µM | K562 47.6 µM | LOX IMVI 77.6 µM | UO-31 > 100 µM | SNB-19 > 100 µM
